{"source": "the NIST ThermoML archive (doi:10.1021/je0302304)", "key": {"[1]": {"conditions": "101.32 kPa, Liquid"}, "[2]": {"test": "refractive index (Na D-line) (dimensionless)", "conditions": "101.33 kPa, Liquid, Standard Abbe refractometry"}, "[3]": {"test": "refractive index (Na D-line) (dimensionless); xn = mol fraction of the nth substance listed", "conditions": "101.32 kPa, Liquid, Standard Abbe refractometry, x2 = 0"}, "[4]": {"test": "xn = mol fraction of the nth substance listed", "conditions": "101.32 kPa, Liquid, x2 = 0"}}, "note": "± gives the expanded uncertainty stated by the source."}
{"compound": "COCCOCCOCCOCCOC", "note": "[2,5,8,11,14-pentaoxapentadecane]", "values": [{"measurement": "mass density", "setting": "[1]; 288.15 K", "value": "1016 ± 0.3", "unit": "kg/m3"}, {"measurement": "mass density", "setting": "[1]; 298.15 K", "value": "1006.6 ± 0.3", "unit": "kg/m3"}, {"measurement": "mass density", "setting": "[1]; 308.15 K", "value": "997.4 ± 0.3", "unit": "kg/m3"}, {"measurement": "mass density", "setting": "[1]; 318.15 K", "value": "988.1 ± 0.3", "unit": "kg/m3"}, {"measurement": "refractive index", "setting": "[2]; 288.15 K", "value": "1.4344 ± 0.0003"}, {"measurement": "refractive index", "setting": "[2]; 298.15 K", "value": "1.4303 ± 0.0003"}, {"measurement": "refractive index", "setting": "[2]; 308.15 K", "value": "1.4262 ± 0.0003"}, {"measurement": "refractive index", "setting": "[2]; 318.15 K", "value": "1.4221 ± 0.0003"}]}
{"compound": "COCCOCCOC", "note": "[2,5,8-trioxanonane]", "values": [{"measurement": "mass density", "setting": "[1]; 288.15 K", "value": "948.6 ± 0.3", "unit": "kg/m3"}, {"measurement": "mass density", "setting": "[1]; 298.15 K", "value": "938.7 ± 0.3", "unit": "kg/m3"}, {"measurement": "mass density", "setting": "[1]; 308.15 K", "value": "928.7 ± 0.3", "unit": "kg/m3"}, {"measurement": "mass density", "setting": "[1]; 318.15 K", "value": "918.6 ± 0.3", "unit": "kg/m3"}, {"measurement": "refractive index", "setting": "[2]; 288.15 K", "value": "1.4101 ± 0.0005"}, {"measurement": "refractive index", "setting": "[2]; 298.15 K", "value": "1.4058 ± 0.0005"}, {"measurement": "refractive index", "setting": "[2]; 308.15 K", "value": "1.4012 ± 0.0005"}, {"measurement": "refractive index", "setting": "[2]; 318.15 K", "value": "1.3968 ± 0.0005"}]}
{"compound": "CCO", "note": "[ethanol] + COCCOCCOCCOCCOC", "values": [{"measurement": "refractive index", "setting": "[3]; 288.15 K", "value": "1.3632 ± 0.0003"}, {"measurement": "refractive index", "setting": "[3]; 298.15 K", "value": "1.3591 ± 0.0003"}, {"measurement": "refractive index", "setting": "[3]; 308.15 K", "value": "1.3551 ± 0.0003"}, {"measurement": "refractive index", "setting": "[3]; 318.15 K", "value": "1.3509 ± 0.0003"}, {"measurement": "mass density", "setting": "[4]; 288.15 K", "value": "793.6 ± 0.5", "unit": "kg/m3"}, {"measurement": "mass density", "setting": "[4]; 298.15 K", "value": "785.2 ± 0.5", "unit": "kg/m3"}, {"measurement": "mass density", "setting": "[4]; 308.15 K", "value": "776.6 ± 0.5", "unit": "kg/m3"}, {"measurement": "mass density", "setting": "[4]; 318.15 K", "value": "767.9 ± 0.5", "unit": "kg/m3"}]}
{"compound": "COCCOCCOCCOC", "note": "[2,5,8,11-tetraoxadodecane]", "values": [{"measurement": "mass density", "setting": "[1]; 288.15 K", "value": "989.7 ± 0.4", "unit": "kg/m3"}, {"measurement": "mass density", "setting": "[1]; 298.15 K", "value": "980.1 ± 0.4", "unit": "kg/m3"}, {"measurement": "mass density", "setting": "[1]; 308.15 K", "value": "970.7 ± 0.4", "unit": "kg/m3"}, {"measurement": "mass density", "setting": "[1]; 318.15 K", "value": "961.1 ± 0.4", "unit": "kg/m3"}, {"measurement": "refractive index", "setting": "[2]; 288.15 K", "value": "1.425 ± 0.0005"}, {"measurement": "refractive index", "setting": "[2]; 298.15 K", "value": "1.4209 ± 0.0005"}, {"measurement": "refractive index", "setting": "[2]; 308.15 K", "value": "1.4167 ± 0.0005"}, {"measurement": "refractive index", "setting": "[2]; 318.15 K", "value": "1.4125 ± 0.0005"}]}
{"compound": "CCO", "note": "[ethanol] + COCCOCCOCCOC", "values": [{"measurement": "refractive index", "setting": "[3]; 288.15 K", "value": "1.3632 ± 0.0005"}, {"measurement": "refractive index", "setting": "[3]; 298.15 K", "value": "1.3591 ± 0.0005"}, {"measurement": "refractive index", "setting": "[3]; 308.15 K", "value": "1.3551 ± 0.0005"}, {"measurement": "refractive index", "setting": "[3]; 318.15 K", "value": "1.3509 ± 0.0005"}, {"measurement": "mass density", "setting": "[4]; 288.15 K", "value": "793.6 ± 0.5", "unit": "kg/m3"}, {"measurement": "mass density", "setting": "[4]; 298.15 K", "value": "785.2 ± 0.5", "unit": "kg/m3"}, {"measurement": "mass density", "setting": "[4]; 308.15 K", "value": "776.6 ± 0.5", "unit": "kg/m3"}, {"measurement": "mass density", "setting": "[4]; 318.15 K", "value": "767.9 ± 0.5", "unit": "kg/m3"}]}
{"compound": "CCO", "note": "[ethanol] + COCCOCCOC", "values": [{"measurement": "refractive index", "setting": "[3]; 288.15 K", "value": "1.3632 ± 0.0005"}, {"measurement": "refractive index", "setting": "[3]; 298.15 K", "value": "1.3591 ± 0.0005"}, {"measurement": "refractive index", "setting": "[3]; 308.15 K", "value": "1.3551 ± 0.0005"}, {"measurement": "refractive index", "setting": "[3]; 318.15 K", "value": "1.3509 ± 0.0005"}, {"measurement": "mass density", "setting": "[4]; 288.15 K", "value": "793.6 ± 0.5", "unit": "kg/m3"}, {"measurement": "mass density", "setting": "[4]; 298.15 K", "value": "785.2 ± 0.5", "unit": "kg/m3"}, {"measurement": "mass density", "setting": "[4]; 308.15 K", "value": "776.6 ± 0.5", "unit": "kg/m3"}, {"measurement": "mass density", "setting": "[4]; 318.15 K", "value": "767.9 ± 0.5", "unit": "kg/m3"}]}
{"compound": "CCO", "note": "[ethanol]", "values": [{"measurement": "mass density", "setting": "[1]; 288.15 K", "value": "793.6 ± 0.5", "unit": "kg/m3"}, {"measurement": "mass density", "setting": "[1]; 298.15 K", "value": "785.2 ± 0.5", "unit": "kg/m3"}, {"measurement": "mass density", "setting": "[1]; 308.15 K", "value": "776.6 ± 0.5", "unit": "kg/m3"}, {"measurement": "mass density", "setting": "[1]; 318.15 K", "value": "767.9 ± 0.5", "unit": "kg/m3"}, {"measurement": "refractive index", "setting": "[2]; 288.15 K", "value": "1.3632 ± 0.0005"}, {"measurement": "refractive index", "setting": "[2]; 298.15 K", "value": "1.3591 ± 0.0005"}, {"measurement": "refractive index", "setting": "[2]; 308.15 K", "value": "1.3551 ± 0.0005"}, {"measurement": "refractive index", "setting": "[2]; 318.15 K", "value": "1.3509 ± 0.0005"}]}
{"compound": "CCO", "note": "[ethanol] + COCCOC", "values": [{"measurement": "refractive index", "setting": "[3]; 288.15 K", "value": "1.3632 ± 0.0005"}, {"measurement": "refractive index", "setting": "[3]; 298.15 K", "value": "1.3591 ± 0.0005"}, {"measurement": "refractive index", "setting": "[3]; 308.15 K", "value": "1.3551 ± 0.0005"}, {"measurement": "refractive index", "setting": "[3]; 318.15 K", "value": "1.3509 ± 0.0005"}, {"measurement": "mass density", "setting": "[4]; 288.15 K", "value": "793.6 ± 0.5", "unit": "kg/m3"}, {"measurement": "mass density", "setting": "[4]; 298.15 K", "value": "785.2 ± 0.5", "unit": "kg/m3"}, {"measurement": "mass density", "setting": "[4]; 308.15 K", "value": "776.6 ± 0.5", "unit": "kg/m3"}, {"measurement": "mass density", "setting": "[4]; 318.15 K", "value": "767.9 ± 0.5", "unit": "kg/m3"}]}
{"compound": "COCCOC", "note": "[1,2-dimethoxyethane]", "values": [{"measurement": "mass density", "setting": "[1]; 288.15 K", "value": "872.4 ± 0.3", "unit": "kg/m3"}, {"measurement": "mass density", "setting": "[1]; 298.15 K", "value": "861.5 ± 0.3", "unit": "kg/m3"}, {"measurement": "mass density", "setting": "[1]; 308.15 K", "value": "850.4 ± 0.4", "unit": "kg/m3"}, {"measurement": "mass density", "setting": "[1]; 318.15 K", "value": "839.2 ± 0.4", "unit": "kg/m3"}, {"measurement": "refractive index", "setting": "[2]; 288.15 K", "value": "1.3824 ± 0.0005"}, {"measurement": "refractive index", "setting": "[2]; 298.15 K", "value": "1.3772 ± 0.0005"}, {"measurement": "refractive index", "setting": "[2]; 308.15 K", "value": "1.3722 ± 0.0005"}, {"measurement": "refractive index", "setting": "[2]; 318.15 K", "value": "1.3672 ± 0.0005"}]}
